Source: paper PMC3793267 (Biomarkers, 2008)
pIC50: −log10 of the molar value.

Legend:
rat plasma albumin [1] = molecular target: T1, rat plasma albumin (Rattus norvegicus, UniProt P02770); assay: biochemical; type: binding
rat plasma albumin [2] = molecular target: T1, rat plasma albumin; assay: Plasma albumin binding by pesticide in vivo after oral dosing of rats; parameters: species or system F344 rats; details: for inhibition of binding of the ^3H-DFP-radiolabelled albumin molecules in vivo: 25% of LD50, plasma 1 day after dosing
erythrocyte AChE [3] = molecular target: erythrocyte AChE (Rattus norvegicus, UniProt P37136); assay: Erythrocyte AChE inhibition after oral dosing of rats; type: in vivo, F344 rats
rats = assay: Clinical signs in rats after oral dosing
Erythrocyte AChE [4] = details: steady (linear) recovery; ref Mason [2000]; cited from earlier work

T1 sequence (P02770 25-608): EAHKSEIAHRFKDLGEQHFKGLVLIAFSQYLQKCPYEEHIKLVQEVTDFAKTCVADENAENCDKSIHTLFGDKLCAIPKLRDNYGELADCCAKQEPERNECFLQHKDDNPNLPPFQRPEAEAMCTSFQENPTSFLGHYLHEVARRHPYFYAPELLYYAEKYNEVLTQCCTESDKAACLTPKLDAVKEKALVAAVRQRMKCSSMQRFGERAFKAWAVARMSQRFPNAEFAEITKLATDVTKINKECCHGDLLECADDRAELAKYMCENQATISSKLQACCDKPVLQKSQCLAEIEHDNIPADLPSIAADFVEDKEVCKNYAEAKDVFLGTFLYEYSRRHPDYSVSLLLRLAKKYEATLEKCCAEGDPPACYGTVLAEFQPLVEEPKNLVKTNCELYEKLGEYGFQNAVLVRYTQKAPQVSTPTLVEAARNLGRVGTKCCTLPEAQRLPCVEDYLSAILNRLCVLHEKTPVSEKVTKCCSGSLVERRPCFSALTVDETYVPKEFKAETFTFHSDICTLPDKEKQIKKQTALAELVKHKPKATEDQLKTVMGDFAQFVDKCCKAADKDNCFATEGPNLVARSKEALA

COP(=O)(OC)SCn1c(=O)oc2cc(Cl)cnc21 [Azamethiphos (oxon), S-6-chloro-2,3-dihydro-2-oxo-1,3-oxazolo[4,5-b]pyridin-3-ylmethyl O,O-dimethyl phosphorothioate]
rat plasma albumin binding (^3H-DFP radiolabelling) reduced from controls (rat plasma albumin [1]): 9±1%

CCN(CC)c1nc(C)cc(OP(=S)(OC)OC)n1 [Pirimiphos-methyl, O-2-diethylamino-6-methylpyrimidin-4-yl O,O-dimethyl phosphorothioate]
inhibition of binding of the ^3H-DFP-radiolabelled albumin molecules in vivo (rat plasma albumin [2]): approximately 50%

CCOP(=O)(OCC)OC(=CCl)c1ccc(Cl)cc1Cl [Chlorfenvinphos (oxon), 2-chloro-1-(2,4-dichlorophenyl)vinyl diethyl phosphate]
inhibition of binding of the ^3H-DFP-radiolabelled albumin molecules in vivo (rat plasma albumin [2]): approximately 50%
^3H-DFP radiolabelled albumin molecules bound in vivo (rat plasma albumin [2]; each of the doses 12.5%, 25% and 80% of LD50, 24 h after dosing): approximately 50%
inhibition at 1.25 mg/kg (erythrocyte AChE [3]; rat, po, read-out: erythrocyte AChE inhibition): 22%
pIC50 (rat plasma albumin [1]): ~6.40
^3H-DFP incorporation into rat plasma albumin versus controls (significance) (rat plasma albumin [1]): significantly different from controls
rat plasma albumin binding (^3H-DFP radiolabelling) reduced from controls (rat plasma albumin [1]): 67±2%
clinical signs (rats; 12.5% of LD50 (1.25 mg kg^−1)): not the lower dose
clinical signs (rats; 80% of LD50 (8.0 mg kg^−1)): salivation and muscle fasciculation in all rats

CCOC(=O)CC(SP(=S)(OC)OC)C(=O)OCC (stereo not shown) [Malathion, diethyl (dimethoxyphosphinothioylthio)succinate]
erythrocyte AChE inhibition (erythrocyte AChE [3]; rats, oral, (approximately) 25% of LD50, Day 1 (24 h) after dosing): 57%

COP(=O)(OC)OC=C(Cl)Cl [dichlorvos]
time for erythrocyte AChE to return to control levels (Erythrocyte AChE [4]): approximately 82 days

CCOC(=O)CC(SP(=O)(OC)OC)C(=O)OCC (stereo not shown) [Malaoxon]
rat plasma albumin binding (^3H-DFP radiolabelling) reduced from controls (rat plasma albumin [1]): 8±1%
